Measured values: US20120214862A1, “MODULATION OF FACTOR 7 EXPRESSION” (ISIS Pharmaceuticals, Inc., priority 2009, published 2012)
In the oligonucleotide strings, read from the 5' end, every base follows the letter of its sugar. An asterisk marks phosphorothioate; unmarked linkages are phosphodiester. Other units and linkages are bracketed, terminal groups are in braces. A string of capitals states the bases alone. e = 2'-O-(2-methoxyethyl) (MOE); [5mC] = 5-methylcytosine; d = 2'-deoxy (DNA)

Tested on: human Factor 7 mRNA
Experiment: Antisense inhibition of human Factor 7 mRNA in HepB3 cells, lipofectin, 50 nM, real-time RT-PCR
Format: cell-based
Conditions: for % Inhibition (human Factor 7 mRNA): 50 nM, ~24 h
Procedure, shortened: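 Percent inhibition, untreated cells as reference: derived from RNA collected about 24 hours post-transfection of 4,000-cell wells, with the human RTS 2927 primer probe set and adjustment for total RNA content (RIBOGREEN®).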

[1] = Example 1, HepB3 cells, lipofectin, relative to untreated control cells
[2] = HepB3 cells, lipofectin, 50 nM antisense oligonucleotide, approximately 24 hours, primer probe set RTS 2927, relative to untreated control
[3] = HepB3 cells, gapmers targeted to nucleobases 14707 to 14732 of SEQ ID NO: 1 (Table 11)
[4] = HepB3 cells, gapmers targeted to nucleobases 11830 to 11869 of SEQ ID NO: 1 (Table 9)
[5] = HepB3 cells, gapmers targeted to nucleobases 13760 to 13789 of SEQ ID NO: 1 (Table 10)

Substance | % Inhibition (human Factor 7 mRNA) [1] [%] | % Inhibition of human Factor 7 mRNA levels [2] [%] | further results
407661 (antisense eT*eT*eT*eA*e[5mC]*dA*dA*dG*dA*dG*d[5mC]*dA*dG*dG*dG*eT*eG*e[5mC]*e[5mC]*eT) [compound 407661] | 47 |  | 
407665 (antisense eG*eT*eT*eA*e[5mC]*dG*dA*dA*dG*dA*d[5mC]*dT*dG*dG*dG*eA*eA*eA*eT*eG) [compound 407665] | 29 |  | 
407652 (antisense eT*eG*eG*eG*eA*dG*d[5mC]*dT*dA*d[5mC]*dA*dG*d[5mC]*d[5mC]*dT*e[5mC]*eA*eA*eA*e[5mC]) [compound 407652] | 30 |  | 
416561 (antisense eG*eG*eT*eG*eT*dG*dT*dT*d[5mC]*d[5mC]*d[5mC]*dA*dT*dA*dA*eA*eA*e[5mC]*eT*eT) [compound 416561] |  | 16 | 
422148 (antisense eG*eG*eA*eG*e[5mC]*d[5mC]*d[5mC]*dG*dA*dG*dT*dT*d[5mC]*dT*dG*e[5mC]*eA*eG*eG*eA) [compound 422148] |  |  | % Inhibition of human Factor 7 mRNA levels (HepB3 cells, gapmers (5-10-5, 3-14-3, 2-13-5 MOE) targeted to nucleobases 4868 to 4899 of SEQ ID NO: 1): 57%
407926 (antisense e[5mC]*e[5mC]*eA*eG*eG*dA*d[5mC]*dA*dA*d[5mC]*d[5mC]*dT*dT*dG*dG*e[5mC]*eA*e[5mC]*eT*e[5mC]) [compound 407926] | 79 |  | 
407950 (antisense eA*eG*e[5mC]*eT*eT*d[5mC]*d[5mC]*dA*dT*dG*dT*dG*dA*dG*dG*eG*eT*eT*e[5mC]*eA) [compound 407950] | 58 |  | 
422132 (antisense eG*e[5mC]*eA*eG*e[5mC]*d[5mC]*dT*dG*dA*dG*dG*d[5mC]*d[5mC]*dA*dG*e[5mC]*eA*eG*eA*eT) [compound 422132] |  |  | % Inhibition of human Factor 7 mRNA levels [3]: 54%
416490 (antisense eA*e[5mC]*eT*e[5mC]*eA*dG*d[5mC]*dA*dA*dG*dA*dG*dT*dG*d[5mC]*eA*eG*e[5mC]*eT*eT) [compound 416490] |  | 33 | 
416480 (antisense eA*eA*eG*eT*eG*dA*dG*dA*dG*d[5mC]*dT*dA*dA*dA*d[5mC]*eA*eA*e[5mC]*e[5mC]*eG) [compound 416480] |  | 25 | 
407624 (antisense eG*eA*eG*eA*e[5mC]*d[5mC]*dA*d[5mC]*d[5mC]*d[5mC]*dA*dG*dA*dT*dG*eG*eT*eG*eT*eT) [compound 407624] | 73 |  | 
422171 (antisense eG*eG*e[5mC]*dT*dG*dA*dG*dG*dA*dG*dA*d[5mC]*dA*dA*dT*dG*dG*eT*e[5mC]*eA) [compound 422171] |  |  | % Inhibition of human Factor 7 mRNA levels [4]: 61%
422098 (antisense eG*eG*eA*eG*eA*d[5mC]*dA*dA*dT*dG*dG*dT*d[5mC]*dA*dG*eG*eG*e[5mC]*eT*eG) [compound 422098] |  |  | % Inhibition of human Factor 7 mRNA levels [4]: 53%
416520 (antisense e[5mC]*e[5mC]*e[5mC]*eT*e[5mC]*dT*dG*d[5mC]*dA*dA*dA*dT*dA*dT*dG*eG*eG*eA*e[5mC]*e[5mC]) [compound 416520] |  | 14 | 
407622 (antisense eT*e[5mC]*eA*e[5mC]*e[5mC]*dA*dA*d[5mC]*dA*dA*d[5mC]*dA*dG*dG*dA*e[5mC]*e[5mC]*eT*eG*e[5mC]) [compound 407622] | 55 |  | 
422124 (antisense eT*eG*eA*eG*e[5mC]*dG*d[5mC]*dG*dG*dA*dA*dG*dA*dA*dG*eG*eG*eA*e[5mC]*eG) [compound 422124] |  |  | % Inhibition (human Factor 7 mRNA) (Example 4, HepB3 cells, lipofectin, relative to untreated control): 0%
416554 (antisense eA*eA*eA*eG*eA*dT*d[5mC]*d[5mC]*d[5mC]*dA*d[5mC]*d[5mC]*dT*d[5mC]*dA*eA*eA*eG*eA*eG) [compound 416554] |  | 7 | 
407956 (antisense eA*eA*e[5mC]*eT*eT*dG*d[5mC]*dA*dT*dT*dT*dA*dG*dT*dG*eA*eT*eG*e[5mC]*eG) [compound 407956] | 19 |  | 
422286 (antisense eA*eG*d[5mC]*dA*d[5mC]*dA*d[5mC]*dA*dT*dG*dG*dA*dG*dT*d[5mC]*eA*eG*e[5mC]*eA*eT) [compound 422286] |  |  | % Inhibition (human Factor 7 mRNA) (Example 6 microwalk, nucleobases 15098 to 15122 of SEQ ID NO: 1, HepB3, lipofectin): 53%
422108 (antisense e[5mC]*e[5mC]*eG*e[5mC]*e[5mC]*dG*dG*d[5mC]*dT*d[5mC]*dT*dG*d[5mC]*dT*d[5mC]*eA*eT*e[5mC]*e[5mC]*e[5mC]) [compound 422108] |  |  | % Inhibition of human Factor 7 mRNA levels [5]: 69%
407629 (antisense eT*e[5mC]*eA*eG*eT*dG*dA*dG*dG*dA*d[5mC]*d[5mC]*dA*d[5mC]*dG*eG*eG*e[5mC]*eT*eG) [compound 407629] | 34 |  | 

Substance | % Inhibition (human Factor 7 mRNA) [1] [%] | % Inhibition of human Factor 7 mRNA levels [2] [%] | further results
407911 (antisense e[5mC]*e[5mC]*e[5mC]*e[5mC]*eT*dT*dG*d[5mC]*dA*dG*dG*dA*dG*dT*d[5mC]*e[5mC]*eT*eT*eG*e[5mC]) [compound 407911] | 74 |  | 
416501 (antisense e[5mC]*eT*eG*e[5mC]*e[5mC]*d[5mC]*dT*dT*d[5mC]*d[5mC]*dA*d[5mC]*d[5mC]*dA*dA*eG*eT*eT*eT*eA) [compound 416501] |  | 18 | 
416510 (antisense eG*eA*e[5mC]*eG*eA*dG*dG*d[5mC]*d[5mC]*dT*d[5mC]*dA*dG*dG*dT*eG*eG*eA*e[5mC]*eG) [compound 416510] |  | 30 | 
416495 (antisense eT*e[5mC]*eT*eA*eG*dA*dA*dT*dT*d[5mC]*d[5mC]*dA*dA*dA*d[5mC]*e[5mC]*e[5mC]*e[5mC]*eT*eA) [compound 416495] |  | 0 | 
422203 (antisense e[5mC]*eA*eG*d[5mC]*d[5mC]*dT*dG*dA*dG*dG*d[5mC]*d[5mC]*dA*dG*d[5mC]*dA*dG*eA*eT*e[5mC]) [compound 422203] |  |  | % Inhibition of human Factor 7 mRNA levels [3]: 52%
407895 (antisense e[5mC]*eA*e[5mC]*eA*e[5mC]*dA*dG*dA*dT*d[5mC]*dA*dG*d[5mC]*dT*dG*eG*eT*e[5mC]*eA*eT) [compound 407895] | 72 |  | 
407609 (antisense eA*eG*eA*eA*eG*d[5mC]*dA*dG*dA*dT*dA*dT*dA*dG*dG*eA*e[5mC]*eT*eG*eG) [compound 407609] | 35 |  | 
416482 (antisense e[5mC]*eA*eT*eG*eG*dT*dG*dA*dT*dG*d[5mC]*dT*dT*d[5mC]*dT*eG*eA*eA*eT*eT) [compound 416482] |  | 64 | % Inhibition of human Factor 7 mRNA levels (HepB3 cells, gapmers targeted to nucleobases 15188 to 15211 of SEQ ID NO: 1 (Table 13)): 64%
407601 (antisense e[5mC]*eA*eG*e[5mC]*e[5mC]*d[5mC]*dT*dG*dA*dA*dG*d[5mC]*d[5mC]*d[5mC]*dA*eA*eG*e[5mC]*eA*eG) [compound 407601] | 52 |  | 
422202 (antisense eA*eG*e[5mC]*d[5mC]*dT*dG*dA*dG*dG*d[5mC]*d[5mC]*dA*dG*d[5mC]*dA*dG*dA*eT*e[5mC]*eA) [compound 422202] |  |  | % Inhibition of human Factor 7 mRNA levels [3]: 49%
422254 (antisense e[5mC]*e[5mC]*d[5mC]*dG*d[5mC]*d[5mC]*dG*dG*d[5mC]*dT*d[5mC]*dT*dG*d[5mC]*dT*e[5mC]*eA*eT*e[5mC]*e[5mC]) [compound 422254] |  |  | % Inhibition of human Factor 7 mRNA levels [5]: 42%
422111 (antisense e[5mC]*eA*e[5mC]*e[5mC]*e[5mC]*dG*d[5mC]*d[5mC]*dG*dG*d[5mC]*dT*d[5mC]*dT*dG*e[5mC]*eT*e[5mC]*eA*eT) [compound 422111] |  |  | % Inhibition of human Factor 7 mRNA levels [5]: 37%
422169 (antisense e[5mC]*eT*eG*dA*dG*dG*dA*dG*dA*d[5mC]*dA*dA*dT*dG*dG*dT*d[5mC]*eA*eG*eG) [compound 422169] |  |  | % Inhibition of human Factor 7 mRNA levels [4]: 56%
416466 (antisense eT*eG*eT*eG*eG*dG*d[5mC]*d[5mC]*dT*d[5mC]*d[5mC]*dA*d[5mC]*dT*dG*eT*e[5mC]*e[5mC]*e[5mC]*e[5mC]) [compound 416466] |  | 57 | 
416553 (antisense eG*eG*eT*eT*e[5mC]*dT*d[5mC]*dT*dG*d[5mC]*dA*d[5mC]*dA*dG*dG*eG*eT*eA*eG*eA) [compound 416553] |  | 56 | 
407955 (antisense eT*eG*eT*eG*eA*dA*dA*dT*dA*dT*d[5mC]*dA*dT*dT*dG*eA*e[5mC]*eA*eA*eG) [compound 407955] | 3 |  | 
416494 (antisense e[5mC]*eA*eG*eA*eT*dT*dT*dA*dA*dA*d[5mC]*dT*dG*d[5mC]*dA*eG*eA*eT*eG*eA) [compound 416494] |  | 0 | 
422279 (antisense eA*eG*d[5mC]*d[5mC]*dT*dG*dA*dG*dG*d[5mC]*d[5mC]*dA*dG*d[5mC]*dA*eG*eA*eT*e[5mC]*eA) [compound 422279] |  |  | % Inhibition of human Factor 7 mRNA levels [3]: 56%
407943 (antisense eG*e[5mC]*eA*eG*eG*d[5mC]*dA*d[5mC]*d[5mC]*dA*d[5mC]*dA*dG*dG*dT*eG*eT*eG*e[5mC]*eG) [compound 407943] | 34 |  | 
416500 (antisense e[5mC]*eT*eG*eA*eA*d[5mC]*dA*d[5mC]*d[5mC]*d[5mC]*d[5mC]*dA*dG*d[5mC]*dT*eG*eA*eG*eA*eG) [compound 416500] |  | 1 | 
422184 (antisense eT*eG*e[5mC]*dG*d[5mC]*d[5mC]*dA*d[5mC]*d[5mC]*d[5mC]*dG*d[5mC]*d[5mC]*dG*dG*d[5mC]*dT*e[5mC]*eT*eG) [compound 422184] |  |  | % Inhibition of human Factor 7 mRNA levels [5]: 55%
